Source: the supplement of paper PMC11061612

Legend:
Assay in all cases: combination Emax (second highest fraction inhibited in the dose matrix, 72 h); higher = more inhibition; extreme values may be limits of the assay
[1] = test system: A673 (Ewing's Sarcoma)
In short: (§1)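 Cell lines in DMEM/F12 or RPMI with 10% FBS were plated in 1536-well plates, held 24 hours at 37°C, 5% CO2, then given two-drug dose matrices for 72 hours (DMSO typically 0.2%). Viability was read by CellTiter-Glo 2.0 luminescence and scaled as inhibition from 0 (vehicle wells) to 1 (blank wells). Combination Emax is the second-highest inhibition in the matrix; Bliss excess is observed combination effect minus expected EA + EB − EA·EB, EA and EB being single-agent effects.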

[2] = test system: ALL-PO (B-Lymphoblastic Leukemia)
In short: as §1

[3] = test system: BPH-1 (Non-Cancerous)
In short: as §1

[4] = test system: CAL-33 (Oral Cavity Carcinoma)
In short: as §1

[5] = test system: EW-11 (Ewing's Sarcoma)
In short: as §1

[6] = test system: FTC-133 (Thyroid Gland Carcinoma)
In short: as §1

[7] = test system: HH (T-Cell Non-Hodgkin's Lymphoma)
In short: as §1

[8] = test system: HeLa (Cervical Carcinoma)
In short: as §1

[9] = test system: Hs-746T (Gastric Carcinoma)
In short: as §1

[10] = test system: LCLC-97TM1 (Non-Small Cell Lung Carcinoma)
In short: as §1

[11] = test system: NCI-H1568 (Lung Adenocarcinoma)
In short: as §1

[12] = test system: NCI-H209 (Small Cell Lung Carcinoma)
In short: as §1

[13] = test system: NCI-H524 (Small Cell Lung Carcinoma)
In short: as §1

[14] = test system: NUGC-4 (Gastric Carcinoma)
In short: as §1

[15] = test system: SAS (Oral Cavity Carcinoma)
In short: as §1

[16] = test system: SNU-449 (Hepatocellular Carcinoma)
In short: as §1

[17] = test system: SW1573 (Lung Adenocarcinoma)
In short: as §1

[18] = test system: TGBC1TKB (Biliary Tract Carcinoma)
In short: as §1

[19] = test system: WSU-NHL (B-Cell Non-Hodgkin's Lymphoma)
In short: as §1

[20] = test system: YAPC (Pancreatic Carcinoma)
In short: as §1

| Compound | combination Emax [1] | combination Emax [2] | combination Emax [3] | combination Emax [4] | combination Emax [5] | combination Emax [6] | combination Emax [7] | combination Emax [8] | combination Emax [9] | combination Emax [10] | combination Emax [11] | combination Emax [12] | combination Emax [13] | combination Emax [14] | combination Emax [15] | combination Emax [16] | combination Emax [17] | combination Emax [18] | combination Emax [19] | combination Emax [20] |
| --- | --- | --- | --- | --- | --- | --- | --- | --- | --- | --- | --- | --- | --- | --- | --- | --- | --- | --- | --- | --- |
| CN(CCO)CC[C@H](CSc1ccccc1)Nc1ccc(S(=O)(=O)NC(=O)c2ccc(N3CCC([C@@H](O)c4ccccc4-c4ccc(Cl)cc4)CC3)cc2)cc1S(=O)(=O)C(F)(F)F [AZD4320] + C1CN(CCC1(C(=O)N[C@@H](CCO)C2=CC=C(C=C2)Cl)N)C3=NC=NC4=C3C=CN4 [Capivasertib] (first compound max 1 µM, 7x7, partner max 3 µM) | 0.905 | 0.97 | 0.562 | 0.363 | 0.837 | 0.517 | 0.417 | 0.0628 | 0.46 | 0.335 | 0.142 | 1 | 0.765 | 0.0873 | 0.132 | 0.0999 | 0.296 | 0.466 | 1 | 0.0702 |
| CN(CCO)CC[C@H](CSc1ccccc1)Nc1ccc(S(=O)(=O)NC(=O)c2ccc(N3CCC([C@@H](O)c4ccccc4-c4ccc(Cl)cc4)CC3)cc2)cc1S(=O)(=O)C(F)(F)F [AZD4320] + C=CCn1c(=O)c2cnc(Nc3ccc(N4CCN(C)CC4)cc3)nc2n1-c1cccc(C(C)(C)O)n1 [AZD1775] (first compound max 1 µM, partner max 1 µM) | 1 | 1 | 0.709 | 0.859 | 0.949 | 0.919 | 0.802 | 0.722 | 0.738 | 0.933 | 0.57 | 1 | 0.952 | 0.374 | 0.647 | 0.138 | 0.698 | 0.508 | 0.995 | 0.278 |
| CN(CCO)CC[C@H](CSc1ccccc1)Nc1ccc(S(=O)(=O)NC(=O)c2ccc(N3CCC([C@@H](O)c4ccccc4-c4ccc(Cl)cc4)CC3)cc2)cc1S(=O)(=O)C(F)(F)F [AZD4320] + CN(C)CCCOc1ccc(-c2ccc3ncc4c(c3c2)n(C2CCOCC2)c(=O)n4C)cn1 [AZD0156] (first compound max 1 µM, 7x7, partner max 1 µM) | 0.929 | 0.97 | 0.474 | 0.198 | 0.854 | 0.44 | 0.274 | 0.0679 | 0.38 | 0.107 | 0.313 | 1 | 0.814 | 0.174 | 0.0348 | 0.15 | 0.128 | 0.492 | 0.866 | 0.129 |
| CN(CCO)CC[C@H](CSc1ccccc1)Nc1ccc(S(=O)(=O)NC(=O)c2ccc(N3CCC([C@@H](O)c4ccccc4-c4ccc(Cl)cc4)CC3)cc2)cc1S(=O)(=O)C(F)(F)F [AZD4320] + Cn1cnc2c(F)c(Nc3ccc(Br)cc3Cl)c(C(=O)NOCCO)cc21 [Selumetinib] (first compound max 1 µM, 7x7, partner max 3 µM) | 0.971 | 1 | 0.784 | 0.701 | 0.934 | 0.74 | 0.3 | 0.397 | 0.77 | 0.489 | 0.444 | 1 | 0.84 | 0.766 | 0.83 | 0.221 | 0.575 | 0.679 | 0.885 | 0.194 |
| COc1nnc2ccc(N3CCC(c4ccc(OCCN5CCN(C)C(=O)[C@H]5C)cc4)CC3)nn12 [AZD5153] + C=CCn1c(=O)c2cnc(Nc3ccc(N4CCN(C)CC4)cc3)nc2n1-c1cccc(C(C)(C)O)n1 [AZD1775] (first compound max 1 µM, partner max 1 µM) | 0.602 | 0.995 | 0.88 | 0.724 | 0.572 | 0.837 | 0.47 | 0.54 | 0.535 | 0.848 | 0.438 | 0.912 | 0.908 | 0.641 | 0.823 | 0.249 | 0.544 | 0.296 | 0.952 | 0.461 |
| COc1nnc2ccc(N3CCC(c4ccc(OCCN5CCN(C)C(=O)[C@H]5C)cc4)CC3)nn12 [AZD5153] + CC1(C)CCC(CN2CCN(c3ccc(C(=O)NS(=O)(=O)c4ccc(NCC5CCOCC5)c([N+](=O)[O-])c4)c(Oc4cnc5[nH]ccc5c4)c3)CC2)=C(c2ccc(Cl)cc2)C1 [Venetoclax] (first compound max 1 µM, 7x7, partner max 1 µM) | 0.505 | 0.889 | 0.745 | 0.402 | 0.457 | 0.578 | 0.406 | 0.433 | 0.512 | 0.685 | 0.251 | 0.727 | 0.694 | 0.567 | 0.754 | 0.252 | 0.43 | 0.293 | 0.978 | 0.384 |
